Values quoted from earlier work in paper PMC12658903 (RSC Medicinal Chemistry, 2025).

Experiments:
HAT = conditions: read-out: IC50 (μM) HAT; cited from earlier work
TMPRSS2 = conditions: read-out: IC50 (μM) TMPRSS2; cited from earlier work
furin = conditions: read-out: IC50 furin; cited from earlier work

SMILES	IC50 (HAT)	IC50 (TMPRSS2)	IC50 (furin)
CN(C)C(=O)COC(=O)Cc1ccc(OC(=O)c2ccc(NC(=N)N)cc2)cc1 [Camostat, camostat]	0.151 µM	[…]	
N=C(N)c1ccc(/N=N/Nc2ccc(C(=N)N)cc2)cc1 [diminazen]			13.2 µM
